Our source for the IC50 values is ChEMBL document CHEMBL5728572, “Thiadiazole IRAK4 compounds” (2021).

SMILES strings stand for the structures.

This assay has as its target T1, Interleukin-1 receptor-associated kinase 4 (Homo sapiens, UniProt Q9NWZ3).
T1 sequence (Q9NWZ3 whole entry): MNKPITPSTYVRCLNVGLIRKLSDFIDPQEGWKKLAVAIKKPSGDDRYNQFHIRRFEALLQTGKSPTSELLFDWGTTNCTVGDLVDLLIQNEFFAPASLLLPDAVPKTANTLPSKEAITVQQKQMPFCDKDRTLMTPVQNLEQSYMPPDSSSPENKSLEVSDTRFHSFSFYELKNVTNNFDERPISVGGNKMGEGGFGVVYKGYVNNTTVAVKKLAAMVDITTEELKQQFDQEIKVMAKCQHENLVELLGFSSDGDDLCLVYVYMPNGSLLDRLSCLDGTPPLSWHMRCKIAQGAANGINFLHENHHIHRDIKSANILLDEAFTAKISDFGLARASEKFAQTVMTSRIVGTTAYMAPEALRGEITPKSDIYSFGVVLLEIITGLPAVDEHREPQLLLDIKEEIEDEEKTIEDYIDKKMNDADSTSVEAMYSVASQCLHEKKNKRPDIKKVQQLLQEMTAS
The assay is described as follows: IRAK4 Biochemical Assay: IRAK4 enzyme (Carna Biosciences, Chuo-ku, Kobe, Japan) activity was measured by detecting phosphorylated peptide substrate formation using an antibody against the phosphorylated peptide substrate. This is a time-resolved fluorescence resonance energy transfer (TR-FRET) immunoassay, based on the STK1 KinEASE Assay (Cisbio, Bedford, Mass.). The assay was designed as a simple two-step, endpoint assay (a 5 μl enzyme reaction followed by 5 μl stop and detect Solution) performed in ProxiPlate-384 Plus plates (Perkin Elmer, Waltham, Mass.). Staurosporine, a non-selective kinase inhibitor was used as a positive control. Compounds diluted in DMSO were spotted into 384 well plates using a Labcyte® Echo 550 Liquid Handling System prior to addition of IRAK4 enzyme and peptide substrate. Reaction solutions were delivered using a Multi-Flo (Bio-Tek Instruments). The enzyme and peptide solution was incubated with compound for 15 minutes at room temp before the reaction was initiated by the addition of ATP. The standard 5 μl reaction mixture contained 500 μM ATP, […] (STK1 Peptide), 0.75 nM of IRAK4 in reaction buffer (50 mM HEPES, pH 7.0, 0.02% NaN3, 0.01% BSA, 0.1 mM Orthovanadate, 5 mM […], 0.025% NP-40, 1 mM DTT). […].

The term IC50 denotes the concentration at which inhibition is half-maximal. As for `CC(C)Nc1cc(-c2ccc3cc(C#N)cnn23)ncc1-c1nnc(N2CCCC2)s1`, the concentration for half-maximal inhibition (IC50) came to 1.8 nM.
